According to patent US9554990B2, “Cholecystokinin secretion-promoting composition” (J-OIL MILLS, INC., priority 2012, dated 2017):

How the values were obtained:
[1] = test system: Mouse intestinal CCK-producing cell line STC-1; assay: Confirmation test of CCK secretion-stimulating activity (CCK in supernatant, enzyme immunoassay); assay type: cell-based; set-up: key to CCK secretion-promoting activity Significant difference from vehicle Group 3 / CCK secretion-promoting activity Significant difference from vehicle Group 4 / CCK secretion-promoting activity Significant difference from vehicle Group 1 / CCK secretion-promoting activity Significant difference from vehicle Group 5: *: A significant difference (P < 0.05) was found; —: No significant difference was found; settings: for CCK secretion-promoting activity Significant difference from vehicle Group 4: experimental group 4; for CCK secretion-promoting activity Significant difference from vehicle Group 4 / CCK secretion-promoting activity Significant difference from vehicle Group 3 / CCK secretion-promoting activity Significant difference from vehicle Group 1: 100 μM; for CCK secretion-promoting activity Significant difference from vehicle Group 3: experimental group 3; for CCK secretion-promoting activity Significant difference from vehicle Group 1: experimental group 1
Protocol: As a condition for maximizing the secretion amount of CCK in a cell test system, 70 mM KCl (positive control) causing hormone release by depolarization was prepared.
Since the number of materials that can be tested at once is restricted, the test materials were divided into five groups as shown in Table 1. In order to solve the discontinuity between experimental groups, every group included trans,trans-2,4-decadienal. Each test material was tested three times, and the average value of the results was calculated.
The test materials were each dissolved in ethanol, and each solution was diluted with Hepes buffer (140 mM NaCl, 4.5 mM KCl, 20 mM Hepes, 1.2 mM CaCl2, 1.2 mM MgCl2, and 10 mM D-glucose, pH 7.4) to give a 0.1 vol % ethanol solution, which was used as the evaluation solution.
Mouse intestinal CCK-producing cell line STC-1 was cultured in a 48-well plate for two to three days until subconfluent in a Dulbecco's modified Eagle's medium containing 10% bovine fetal serum at 37° C. in the presence of 5% CO2. After the wells were washed with Hepes buffer, 100 μL of the evaluation solution containing 100 μM of a test material was added to a well, followed by incubation at 37° C. for 60 minutes. The supernatant was collected and was centrifuged (800×g, 5 min, 4° C.) to precipitate the exfoliated cells. The resulting supernatant (80 μL) was collected and was cryopreserved. The concentration of CCK in the supernatant was measured with a commercially available enzyme immunoassay kit (manufactured by Phoenix Pharmaceuticals, Inc.).
In order to investigate the change in the secretion amount of CCK by addition of a test material to the cells in a general condition, a value obtained by subtracting the measured value of the vehicle from the measured value of a sample was used as the true value, and the score of the CCK secretion-stimulating activity was determined by dividing the true value by the value of 70 mM KCl as a control. The variance was analyzed for each experimental group. The difference in variance between an experimental group and the vehicle was examined for determining whether there was a significant difference (P<0.05). […]

[2] = swallowing; cited from earlier work
[3] = Table 2B, 100 μM test material, 60 minutes, STC-1, (sample minus vehicle) divided by value of 70 mM KCl control
[4] = Table 2A, 100 μM test material, 60 minutes, STC-1, (sample minus vehicle) divided by value of 70 mM KCl control

SMILES: CC/C=C\CCC=O [Comparative Example 11, cis-4-heptenal]
- CCK secretion-promoting activity Score [1, 3]: −0.001

SMILES: C=CC(=O)O [Example 12, acrylic acid]
- CCK secretion-promoting activity Score [1, 4]: 0.957
- CCK secretion-promoting activity Significant difference from vehicle Group 4 ([1]; Table 2A): * (A significant difference (P < 0.05) was found)

SMILES: C=CC=O [propenal]
- CCK secretion-stimulating activity (in words) ([1]; single test material, STC-1): has a CCK-secreting activity
- GHS class of acute toxicity [2]: class 2

SMILES: CCCCC/C=C/C(=O)O [compound 23, trans-2-octenoic acid]
- CCK secretion-promoting activity Score [1, 3]: 0.146
- CCK secretion-promoting activity Significant difference from vehicle Group 4 ([1]; Table 2B): —

SMILES: CCCCCCCCCC [compound 28, decane]
- CCK secretion-promoting activity Score [1, 3]: −0.224

SMILES: C/C=C\CCCCCCC [compound 29, cis-2-decene]
- CCK secretion-promoting activity Score [1, 3]: −0.208

SMILES: CCCCCCCCC/C=C/C=O [compound 10, trans-2-dodecenal]
- CCK secretion-promoting activity Score [1, 3]: −0.319
- CCK secretion-promoting activity Significant difference from vehicle Group 3 ([1]; Table 2B): —

SMILES: CCCCCCCC=O [compound 2, octanal]
- CCK secretion-promoting activity Score [1, 3]: −0.004
- CCK secretion-promoting activity Significant difference from vehicle Group 3 ([1]; Table 2B): —

SMILES: CC/C=C/C=C/C=O [Example 2, trans,trans-2,4-heptadienal]
- CCK secretion-promoting activity Score [1, 4]: 0.885
- CCK secretion-promoting activity Significant difference from vehicle Group 1 ([1]; Table 2A): * (A significant difference (P < 0.05) was found)

SMILES: CCCCCCCCCCCCO [compound 20, dodecyl alcohol]
- CCK secretion-promoting activity Score [1, 3]: −0.304

SMILES: CC/C=C\CCCCC=O [compound 12, cis-6-nonenal]
- CCK secretion-promoting activity Score [1, 3]: −0.648
- CCK secretion-promoting activity Significant difference from vehicle Group 3 ([1]; Table 2B): —

SMILES: [Cl-].[K+] [70 mM KCl, KCl]
- CCK secretion-promoting activity Score [1, 4]: 1
- CCK secretion-promoting activity Score [1, 3]: 1
- CCK secretion-promoting activity Score ([1]; Table 3, single ingredient (100 μM) or control, relative to 70 mM KCl): 1

SMILES: CCCCCC/C=C/C(C)=O [compound 22, trans-3-decen-2-one]
- CCK secretion-promoting activity Score [1, 3]: 0.169

SMILES: CCCCCCCCCCCC(=O)O [compound 26, lauric acid]
- CCK secretion-promoting activity Score [1, 3]: −0.225

SMILES: CCCCCCCCO [compound 18, 1-octanol]
- CCK secretion-promoting activity Score [1, 3]: −0.134

SMILES: C/C=C/C=C/C=O [Example 1, trans,trans-2,4-hexadienal]
- CCK secretion-promoting activity Score [1, 4]: 0.840
- CCK secretion-promoting activity Significant difference from vehicle Group 1 ([1]; Table 2A): * (A significant difference (P < 0.05) was found)

SMILES: CCCCC/C=C/CCC=O [Example 10, trans-4-decenal]
- CCK secretion-promoting activity Score [1, 4]: 0.441

SMILES: C=CCCCCCCCCC=O [compound 14, trans-10-undecenal]
- CCK secretion-promoting activity Score [1, 3]: −0.458
- CCK secretion-promoting activity Significant difference from vehicle Group 3 ([1]; Table 2B): —

SMILES: CCCCCCCCCCCCCO [compound 21, n-tridecyl alcohol]
- CCK secretion-promoting activity Score [1, 3]: −0.225

SMILES: CCCC/C=C/C=O [Example 7, trans-2-heptenal]
- CCK secretion-promoting activity Score [1, 4]: 0.624
- CCK secretion-promoting activity Significant difference from vehicle Group 1 ([1]; Table 2A): * (A significant difference (P < 0.05) was found)

SMILES: CCCCC/C=C\CCC=O [Example 11, cis-4-decenal]
- CCK secretion-promoting activity Score [1, 4]: 0.377
- CCK secretion-promoting activity Significant difference from vehicle Group 4 ([1]; Table 2A): —

SMILES: CCCCCCCCCCO [compound 19, n-decyl alcohol]
- CCK secretion-promoting activity Score [1, 3]: 0.070
